Experimental data reported in article PMC12030497, “Plasma Protein Binding, Biostability, Metabolite Profiling, and CYP450 Phenotype of TPB15 Across Different Species: A Novel Smoothened Inhibitor for TNBC Therapy” (Pharmaceutics, 2025).

Legend:
mice = test system: mice; design: method as in PMID 32690258; settings: acute toxicity; cited from earlier work
MDA-MB-468 = test system: MDA-MB-468; design: method as in PMID 32690258; settings: MDA-MB-468, in vitro; cited from earlier work
[1] = test system: CYP450 enzymes in human liver microsomes; experiment: Metabolic enzyme phenotype of TPB15 in human liver microsomes with selective CYP450 inhibitors; format: in vitro ADME
Procedure: The specific procedure was as follows: a total of 0.5 μL of the substrate TPB15 and 0.5 μL of each specific inhibitor were mixed with 449 μL of human liver microsomes, and the mixture was incubated at 37 °C for 10 min. Subsequently, 50 μL of NADPH with a concentration of 10 mM in PBS were introduced to initiate the reaction. After 90 min, 50 μL of the reaction mixture were transferred to a 150 μL ice-cold methanol solution containing an internal standard to terminate the reaction. The mixture was vortexed for 2 min and then centrifuged at 4 °C at 14,800 rpm for 10 min. A volume of 130 μL of the supernatant was then transferred to a new EP tube, which was centrifuged again at 4 °C at 14,800 rpm for another 10 min. Finally, 5 μL of the supernatant were injected for the determination of substrate TPB15 concentration. Three parallel samples were prepared for each time point. The experiment also included a positive control group and a negative control group. In the positive control group, substrate TPB15 was incubated with human liver microsomes for 90 min without the addition of inhibitors. In the negative control group, the substrate TPB15 was incubated for 90 min without inhibitors, with human liver microsomes replaced by an equal volume of phosphate-buffered saline (PBS). The metabolic rate of TPB15 in human liver microsomes was represented by the elimination rate of the substrate TPB15.

Stability in rat plasma = format: in vitro ADME, SD rat; settings: 37 °C, 453 μg/L
Procedure: (§1) A total of 696.5 μL of plasma from each species (healthy mice, rat, dog, monkey, and human) were spiked with 3.5 μL of TPB15 stock solution ([…] in DMSO), resulting in a final TPB15 concentration of 453 μg/L in plasma. The mixture was then aliquoted into three tubes, each with a volume of 200 μL, maintaining a final DMSO concentration of 0.5%. After incubation in a water bath at 37 °C for 0, 30, 60, 90, and 120 min, 100 µL samples were transferred into EP tubes. Subsequently, 10 µL of internal standard working solution were added, followed by vortex mixing. Then, 500 µL of ethyl acetate were added, and the mixture was vortexed again before being centrifuged at 14,800 rpm at 4 °C for 10 min. A total of 400 µL of the supernatant were transferred into a new EP tube and placed in a vacuum concentrator (Bionoon-VAC2) (Bionoon Biotech, Shanghai, China) to dry for 1 h. The dried residue was reconstituted with 100 µL of mobile phase, vortex mixed thoroughly, and centrifuged again at 14,800 rpm at 4 °C for 10 min. A volume of 5 µL of the supernatant was then taken for LC-MS/MS analysis to determine the drug concentration. Additionally, a blank control group was established, in which PBS buffer was used in place of blank plasma in the incubation system.

[2] = Plasma protein binding by ultrafiltration, rat plasma; format: in vitro ADME, SD rat
Procedure: (§2) To prepare plasma samples of TPB15 at final concentrations of 4, 8, and 16 μg/mL, 1 μL of TPB15 dissolved in dimethyl sulfoxide (DMSO) at low (400 μg/mL), medium (800 μg/mL), and high (1600 μg/mL) concentrations was added to 99 μL of blank plasma obtained from humans, rats, mice, monkeys, and dogs. Each concentration was prepared in six replicates. The samples were then divided into two groups: one for determining the pre-ultrafiltration concentration (Cpre) and the other for measuring the post-ultrafiltration concentration (Ct), following the evaluation of the non-specific binding coefficient (NSB) of TPB15 to the ultrafiltration tubes. For Cpre determination, 10 μL of the sample was mixed with 990 μL of plasma, vortexed thoroughly, and analyzed for drug concentration using the previously reported liquid chromatography–tandem mass spectrometry (LC-MS/MS) method. For Ct determination, the samples were first incubated in a water bath at 37 °C for 3 h. After incubation, they were transferred to ultrafiltration tubes and centrifuged at 14,000 rpm for 20 min at 4 °C using a centrifuge (Sigma 3K-15) from Sigma Laborzentrifugen GmbH (Osterode am Harz, Germany). After centrifugation, 10 μL of the ultrafiltrate was mixed with 990 μL of plasma, vortexed, and analyzed for concentration using the same LC-MS/MS method. The formula for calculating the plasma protein binding rate (PPB) is as follows: PPB (%) = [1 − Ct/(1 − NSB)/Cpre] × 100%. (NSB: non-specific binding coefficient. […]).

Stability in dog plasma = format: in vitro ADME, beagle dog; settings: 37 °C, 453 μg/L
Procedure: as §1

[3] = Metabolic stability in human liver microsomes (HLM); format: in vitro ADME
Procedure: A total of 450 μL liver microsomes from mice, rat, dog, monkey, and human were spiked with 0.5 μL of TPB15 solution and pre-incubated in a water bath at 37 °C for 10 min. Following this, 50 μL of NADPH were added to initiate the reaction. The concentrations of each substance in the incubation system are detailed in Table 1. After initiating the metabolic reaction, 50 μL aliquots were removed at incubation times of 0, 5, 15, 30, 45, 60, and 90 min and transferred to 150 μL of icy methanol solution containing the internal standard to terminate the reaction. The mixtures were swirled for 2 min and then centrifuged at 14,800 rpm at 4 °C for 10 min. […] Three samples were prepared in parallel at each time point. Additionally, both a positive control group and a blank control group were established. In the positive control group, substrate testosterone was incubated with liver microsomes from mice, rat, dog, monkey, and human. The concentrations of substrate testosterone were measured at 0 and 90 min, and the changes in concentration before and after incubation were compared to confirm the activity of the liver microsomes. The blank control group included one drug-containing inactivated liver microsome sample for each species. The metabolic stability parameters, including in vitro elimination half-life (T1/2) and in vitro intrinsic clearance rate (CLint), were calculated based on this graph using the following formulas: in vitro elimination half-life (T1/2) = −0.693/k and in vitro intrinsic clearance rate (CLint) = (0.693 × incubation medium (mL))/(liver microsomes (mg) × T1/2).

[4] = Plasma protein binding by ultrafiltration, human plasma; format: in vitro ADME
Procedure: as §2

mouse plasma protein = experiment: Plasma protein binding by ultrafiltration, mouse plasma; format: in vitro ADME, KM mice; settings: 37 °C 3 h
Procedure: as §2

[5] = as above; format: in vitro ADME, KM mice; settings: KM; mouse plasma, 4 to 16 μg/mL; read-out: average plasma protein binding rates, range over concentrations
Procedure: as §2

[6] = Plasma protein binding by ultrafiltration, monkey plasma; format: in vitro ADME, cynomolgus monkey
Procedure: as §2

## O=C(Nc1ccc(Cl)c(-c2nnc3c(Cl)cccn23)c1)c1ccc(Cl)nc1Cl [TPB15]
mice
  lethal dose for 50% of the population (LD50): 3875.35 mg/kg
MDA-MB-468
  inhibition of proliferation of TNBC cell line: significantly inhibits the proliferation
[1]
  primary metabolic enzymes involved in TPB15 metabolism: CYP2C9 and CYP3A4
Stability in rat plasma; incubation 0 min
  Remaining proportion of substrate TPB15 (%) SD rat: 100.0 ± 0.6%
Stability in rat plasma; incubation 30 min
  Remaining proportion of substrate TPB15 (%) SD rat: 99.7 ± 1.5%
Stability in rat plasma; incubation 60 min
  Remaining proportion of substrate TPB15 (%) SD rat: 97.6 ± 0.6%
Stability in rat plasma; incubation 90 min
  Remaining proportion of substrate TPB15 (%) SD rat: 99.1 ± 0.3%
Stability in rat plasma; incubation 120 min
  Remaining proportion of substrate TPB15 (%) SD rat: 98.0 ± 0.6%
[2]; SD, rat plasma, 4 to 16 μg/mL, read-out: average plasma protein binding rates, range over concentrations
  fraction unbound at 3 h: 0.176 to 0.191
[2]; Sprague-Dawley, rat, plasma, 4 μg/mL TPB15, ultrafiltration, 37 °C 3 h, read-out: Plasma Protein Binding (%) SD Rat (converted)
  fraction unbound at 3 h, 4 μg/mL: 0.183
[2]; Sprague-Dawley, rat, plasma, 8 μg/mL TPB15, ultrafiltration, 37 °C 3 h, read-out: Plasma Protein Binding (%) SD Rat (converted)
  fraction unbound at 3 h, 8 μg/mL: 0.191
[2]; Sprague-Dawley, rat, plasma, 16 μg/mL TPB15, ultrafiltration, 37 °C 3 h, read-out: Plasma Protein Binding (%) SD Rat (converted)
  fraction unbound at 3 h, 16 μg/mL: 0.176
Stability in dog plasma; incubation 0 min
  Remaining proportion of substrate TPB15 (%) Beagle dog: 100.0 ± 1.1%
Stability in dog plasma; incubation 30 min
  Remaining proportion of substrate TPB15 (%) Beagle dog: 99.3 ± 0.7%
Stability in dog plasma; incubation 60 min
  Remaining proportion of substrate TPB15 (%) Beagle dog: 98.9 ± 0.4%
Stability in dog plasma; incubation 90 min
  Remaining proportion of substrate TPB15 (%) Beagle dog: 97.1 ± 1.4%
Stability in dog plasma; incubation 120 min
  Remaining proportion of substrate TPB15 (%) Beagle dog: 98.0 ± 0.8%
[3]; human microsomes, 90 min, 5 μM TPB15, 0.5 mg/mL, NADPH 1 mM
  remaining proportion of TPB15 in liver microsomes: 55.0 ± 2.81%
[3]; human, liver microsomes, HLM, 5 μM TPB15, 0.5 mg/mL microsomes, read-out: CLint (mL/min/mg), in vitro intrinsic clearance rate
  microsomal CLint at 5 μM: 0.0805 mL/min/mg
[3]; human, liver microsomes, HLM, 5 μM TPB15, 0.5 mg/mL microsomes, read-out: T1/2 (min), in vitro elimination half-life
  half-life at 5 μM: 103 min
[4]; human plasma, 4 to 16 μg/mL, read-out: average plasma protein binding rates, range over concentrations
  fraction unbound at 3 h: 0.179 to 0.185
[4]; human, plasma, 4 μg/mL TPB15, ultrafiltration, 37 °C 3 h
  fraction unbound at 3 h, 4 μg/mL: 0.185
[4]; human, plasma, 8 μg/mL TPB15, ultrafiltration, 37 °C 3 h
  fraction unbound at 3 h, 8 μg/mL: 0.183
[4]; human, plasma, 16 μg/mL TPB15, ultrafiltration, 37 °C 3 h
  fraction unbound at 3 h, 16 μg/mL: 0.179
Mouse plasma protein; 4 μg/mL TPB15, ultrafiltration
  Plasma Protein Binding (%) KM Mice: 81.80 ± 0.10%
Mouse plasma protein; 8 μg/mL TPB15, ultrafiltration
  Plasma Protein Binding (%) KM Mice: 81.21 ± 0.34%
Mouse plasma protein; 16 μg/mL TPB15, ultrafiltration
  Plasma Protein Binding (%) KM Mice: 82.40 ± 0.42%
[5]
  fraction unbound at 3 h: 0.176 to 0.188
[6]; cynomolgus monkey, plasma, 4 μg/mL TPB15, ultrafiltration, 37 °C 3 h
  fraction unbound at 3 h, 4 μg/mL: 0.185
[6]; cynomolgus monkey, plasma, 8 μg/mL TPB15, ultrafiltration, 37 °C 3 h
  fraction unbound at 3 h, 8 μg/mL: 0.188
[6]; cynomolgus monkey, plasma, 16 μg/mL TPB15, ultrafiltration, 37 °C 3 h
  fraction unbound at 3 h, 16 μg/mL: 0.178
[6]; monkey plasma, 4 to 16 μg/mL, read-out: average plasma protein binding rates, range over concentrations
  fraction unbound at 3 h: 0.178 to 0.188
